# Results published in patent US20230111310A1, “CARBOXYLIC ACID DERIVATIVE-SUBSTITUTED IMINO ARYL COMPOUND, PREPARATION METHOD THEREFOR, HERBICIDAL COMPOSITION AND USE THEREOF” (Qingdao Kingagroot Chemical Compound Co., Ltd., priority 2020, published 2023).
# How the values were obtained:
# Test in all cases: Weeding effect in post-emergence stage
# Type in all cases: in vivo
# [1] = test system: Echinochloa crusgalli; details: for Weeding effect in post-emergence stage, Echinochloa crusgalli: level of fresh weight growth control rate
# How it was run: (§1)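 Post-emergence spray tower; 2-3 leaf plants (2 wk after sowing, soil pots, greenhouse). Formulation: acetone, Tween 80, methyl oleate EC 1.5 liter/ha as synergist, water. Rates 500–7.5 g/ha. Growth control rate read at 3 wk; n=3, averaged.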
# [2] = test system: Alopecurus japonicus; details: for Weeding effect in post-emergence stage, Alopecurus japonicus: level of fresh weight growth control rate
# How it was run: as §1
# [3] = test system: Setaria viridis; details: for Weeding effect in post-emergence stage, Setaria viridis: level of fresh weight growth control rate
# How it was run: as §1
# [4] = test system: Digitaria sanguinalis; details: for Weeding effect in post-emergence stage, Digitaria sanguinalis: level of fresh weight growth control rate
# How it was run: as §1
# [5] = test system: Abutilon theophrasti; details: for Weeding effect in post-emergence stage, Abutilon theophrasti: level of fresh weight growth control rate
# How it was run: as §1
# [6] = test system: Eleusine indica; details: for Weeding effect in post-emergence stage, Eleusine indica: level of fresh weight growth control rate
# How it was run: as §1
# [7] = Dose 60 g/ha, fresh weight control rate level
structure (smiles),measurement,setting,value
COC(=O)C(C)O/N=C/c1cc(-n2c(=S)cc(C(F)(F)F)n(C)c2=S)c(F)cc1C#N (racemic) [Compound 393],"Weeding effect in post-emergence stage, Echinochloa crusgalli (level)",[1]; [7],5 (Level 5: growth control rate is above 85%)
same,"Weeding effect in post-emergence stage, Alopecurus japonicus (level)",[2]; [7],5 (Level 5: growth control rate is above 85%)
same,"Weeding effect in post-emergence stage, Setaria viridis (level)",[3]; [7],5 (Level 5: growth control rate is above 85%)
same,"Weeding effect in post-emergence stage, Digitaria sanguinalis (level)",[4]; [7],5 (Level 5: growth control rate is above 85%)
same,"Weeding effect in post-emergence stage, Abutilon theophrasti (level)",[5]; [7],5 (Level 5: growth control rate is above 85%)
same,"Weeding effect in post-emergence stage, Eleusine indica (level)",[6]; [7],5 (Level 5: growth control rate is above 85%)
CC(O/N=C/c1cc(-n2c(=O)cc(C(F)(F)F)n(C)c2=O)c(F)cc1Cl)C(=O)OCC(F)F (racemic) [Compound 217],"Weeding effect in post-emergence stage, Echinochloa crusgalli",[1]; Dose 15 g/ha,5 (Level 5: growth control rate is above 85%)
same,"Weeding effect in post-emergence stage, Alopecurus japonicus",[2]; Dose 15 g/ha,5 (Level 5: growth control rate is above 85%)
same,"Weeding effect in post-emergence stage, Setaria viridis",[3]; Dose 15 g/ha,5 (Level 5: growth control rate is above 85%)
same,"Weeding effect in post-emergence stage, Digitaria sanguinalis",[4]; Dose 15 g/ha,5 (Level 5: growth control rate is above 85%)
same,"Weeding effect in post-emergence stage, Abutilon theophrasti",[5]; Dose 15 g/ha,5 (Level 5: growth control rate is above 85%)
same,"Weeding effect in post-emergence stage, Eleusine indica",[6]; Dose 15 g/ha,5 (Level 5: growth control rate is above 85%)
CCOC(=O)COC(=O)C(C)O/N=C/c1cc(-n2c(=O)cc(C(F)(F)F)n(C)c2=O)c(F)cc1Cl (stereo not drawn) [Compound 239],"Weeding effect in post-emergence stage, Echinochloa crusgalli",[1]; Dose 15 g/ha,5 (Level 5: growth control rate is above 85%)
same,"Weeding effect in post-emergence stage, Alopecurus japonicus",[2]; Dose 15 g/ha,5 (Level 5: growth control rate is above 85%)
same,"Weeding effect in post-emergence stage, Setaria viridis",[3]; Dose 15 g/ha,5 (Level 5: growth control rate is above 85%)
same,"Weeding effect in post-emergence stage, Digitaria sanguinalis",[4]; Dose 15 g/ha,5 (Level 5: growth control rate is above 85%)
same,"Weeding effect in post-emergence stage, Abutilon theophrasti",[5]; Dose 15 g/ha,5 (Level 5: growth control rate is above 85%)
same,"Weeding effect in post-emergence stage, Eleusine indica",[6]; Dose 15 g/ha,5 (Level 5: growth control rate is above 85%)
CCCCCCC(C)OC(=O)C(C)O/N=C/c1cc(-n2c(=O)cc(C(F)(F)F)n(C)c2=O)c(F)cc1Cl (racemic) [Compound 207],"Weeding effect in post-emergence stage, Echinochloa crusgalli",[1]; Dose 15 g/ha,5 (Level 5: growth control rate is above 85%)
same,"Weeding effect in post-emergence stage, Alopecurus japonicus",[2]; Dose 15 g/ha,5 (Level 5: growth control rate is above 85%)
same,"Weeding effect in post-emergence stage, Setaria viridis",[3]; Dose 15 g/ha,5 (Level 5: growth control rate is above 85%)
same,"Weeding effect in post-emergence stage, Digitaria sanguinalis",[4]; Dose 15 g/ha,5 (Level 5: growth control rate is above 85%)
same,"Weeding effect in post-emergence stage, Abutilon theophrasti",[5]; Dose 15 g/ha,5 (Level 5: growth control rate is above 85%)
same,"Weeding effect in post-emergence stage, Eleusine indica",[6]; Dose 15 g/ha,5 (Level 5: growth control rate is above 85%)
COC(=O)CCOC(=O)C(C)O/N=C/c1cc(-n2c(=O)cc(C(F)(F)F)n(C)c2=O)c(F)cc1Cl (stereo not drawn) [Compound 240],"Weeding effect in post-emergence stage, Echinochloa crusgalli",[1]; Dose 30 g/ha,5 (Level 5: growth control rate is above 85%)
same,"Weeding effect in post-emergence stage, Alopecurus japonicus",[2]; Dose 30 g/ha,5 (Level 5: growth control rate is above 85%)
same,"Weeding effect in post-emergence stage, Setaria viridis",[3]; Dose 30 g/ha,5 (Level 5: growth control rate is above 85%)
same,"Weeding effect in post-emergence stage, Digitaria sanguinalis",[4]; Dose 30 g/ha,5 (Level 5: growth control rate is above 85%)
same,"Weeding effect in post-emergence stage, Abutilon theophrasti",[5]; Dose 30 g/ha,5 (Level 5: growth control rate is above 85%)
same,"Weeding effect in post-emergence stage, Eleusine indica",[6]; Dose 30 g/ha,5 (Level 5: growth control rate is above 85%)
